Values quoted from earlier work in patent US20020004489A1, “Retinoid receptor interacting polynucleotides, polypeptides, and antibodies” (priority 1999, published 2002).

What was measured:
[1] = test system: viruses containing the K103N mutation
[2] = test system: lamivudine-resistant isolates
[3] = test system: protease inhibitor-resistant viruses
[4] = deletion of 8-10 C-terminal residues, versus undeleted protein

## CC(C)c1nc(COC(N)=O)n(Cc2ccncc2)c1Sc1cc(Cl)cc(Cl)c1 [CAPRAVIRINE]
[1]
  activity against K103N mutants: activity against viruses containing the K103N mutation

## Nc1ccn([C@H]2CO[C@@H](CO)S2)c(=O)n1 [dOTC]
[2]
  activity against lamivudine-resistant isolates: retains activity against a substantial proportion of lamivudine-resistant isolates

## Nc1nc(=O)n([C@H]2C=C[C@@H](CO)O2)cc1F [DD4FC]
AZT/3TC-resistant virus
  activity against AZT/3TC-resistant virus: activity against AZT/3TC-resistant virus

## C[C@H](Sc1nc(N)cc(Cl)n1)c1cc2ccoc2cn1 [PNU-142721]
HIV; greater activity than delavirdine
  activity relative to its predecessor delavirdine: 20- to 50 fold
[1]
  activity against K103N mutants: active against K103N mutants

## Cc1ccccc1CNC(=O)[C@H]1N(C(=O)[C@@H](O)[C@H](Cc2ccccc2)NC(=O)c2cccc(O)c2C)CSC1(C)C [AG-1776]
[3]
  in vitro activity against protease inhibitor-resistant viruses: in vitro activity against protease inhibitor-resistant viruses

## Nc1nc(=O)n([C@@H]2CS[C@H](CO)O2)cc1F [COVIRACIL, emtricitabine]
HIV; in vitro, greater activity than lamivudine (3TC)
  activity in vitro relative to lamivudine (3TC): 3- to 10 fold

## CC[C@H]1C(=O)Nc2ccc(F)cc2N1C(=O)OC(C)C [GW-420867X]
HIV; greater activity than HBY097
  activity relative to HBY097: 25 fold
[1]
  activity against K103N mutants: active against K103N mutants

## Interferon gamma
[4]
  activity after deleting 8-10 amino acid residues from the carboxy terminus: up to ten times higher activity
